Where two headings read alike, the source gives them in different places.
How the values were obtained:
[1] = Plasma concentration (AUC) after oral administration to beagle dogs, after fast or after diet; assay type: in vivo; conditions: male, dog, 200 mg/kg, 30 minutes after diet, dogs No. 1-5 and mean in last row, read-out: AUC of tritoqualine concentration in blood for 5 hours
Procedure: Tritoqualine was orally administered to male beagle dogs, […], body weight of 9.5 - 12 kg, Hazleton, after fast or 30 minutes after diet in a dose of 200 mg/kg.
Tritoqualine had been subjected to micronization by a jet mill PJM-100NP, NIHON NEWMATIC KOGYO KK, JAPAN (10 % or more of 3 microns or less, 80 % of 3-15 microns and 10 % or less of 15 microns or more; average of 7 microns) or a screen of 100 mesh under. The obtained particles were suspended in aqueous 1 % Tween 80 solution before use. […]
Before the administration, and 0.5, 1, 2, 3 and 5 hours after the administration, 1 ml of blood was taken out of the vein of front leg, placed into a BHA-coated centrifugal tube "VENOJECT" containing heparin, TERMO INC., and centrifuged. Hundred microliters of the thus obtained plasma was placed into a small glass test tube, which had been coated with 1 microgram of BHA. Into the tube were added 190 microliters of noscapine (100 micrograms in ml of acetonitrile) as an internal standard and 10 microliters of acetonitrile. After blending for one minute, the mixture was centrifuged at 3,000 rpm for 5 minutes. The resulting supernatant was subjected to HPLC under the conditions described below.
The quantitative measurements of tritoqualine in the plasma were carried out according to the internal standard method. The area under curve (AUC) was calculated by the trapezoidal rule. […]

[2] = system: patients suffering from chronic hepatitis; assay: Clinical investigation in chronic hepatitis, oral administration for 8 weeks after every diet; assay type: in vivo; conditions: for improvement of liver functions (patients): 8 weeks
Procedure: To patients suffering from chronic hepatitis tritoqualine was administered orally for 8 weeks continuously in a daily dose of 150 or 300 mg after every diet.
Glutamate oxaloacetate transaminase (GOT) and glutamate pyruvate transaminase (GPT) were measured just before the first administration, and 4 and 8 weeks after the first administration.
During the above investigations, there were few cases where slight side effects such as dizziness and nausea, which were suspected to have a relation with the administered drug, appeared : in one case among 65 cases administered in a dose of 150 mg, i.e. 1.5 %; and 8 cases among 137 cases in a dose of 300 mg, i.e. 5.8 %.
When tritoqualine was administered in a dose of 600 mg in the same manner as described above, side effects appeared in 24 cases among 164 cases, i.e. 14.6 %.

[3] = system: patients with chronic active hepatitis; conditions: daily dosages 600 to 1600 mg, 13 patients; particularly at 1200-1600 mg/day; cited from earlier work

## CCOc1c(N)c2c(c(OCC)c1OCC)C(C1c3c(cc4c(c3OC)OCO4)CCN1C)OC2=O (stereo not drawn) [tritoqualine, 7-amino-4,5,6-triethoxy-3-(5,6,7,8-tetrahydro-4-methoxy-6-methyl-1,3-dioxolo(4,5-g)isoquinolin-5-yl)phthalide]
[1]; 100 mesh under 200 mg/kg oral
  AUC: 187 ng·h/mL
[1]; Micronisation 200 mg/kg oral
  AUC: 674 ng·h/mL
[2]; daily dose 150 mg oral, 27 among 62 patients
  improvement of liver functions (patients): 44.3%
[2]; daily dose 300 mg oral, 79 among 135 patients
  improvement of liver functions (patients): 61.2%
[2]; dose of 150 mg, one case among 65 cases
  side effects such as dizziness and nausea (cases): 1.5%
[2]; dose of 300 mg, 8 cases among 137 cases
  side effects such as dizziness and nausea (cases): 5.8%
[2]; dose of 600 mg, 24 cases among 164 cases
  side effects (cases): 14.6%
[3]
  fibrosis with cellular infiltration on biopsied liver specimens: reduction of fibrosis
  liver functions: marked improvement

From EP0201359A2, “Use of phthalide isoquinoline derivatives for treatments inhibiting the formation of lipid peroxides” (MITSUBISHI KASEI CORPORATION, priority 1985, dated 1986)
